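Five compound concentrations were applied to cells in 96-well plates for 48 hours; endpoints were derived by simple linear interpolation of the resulting dose-response curve. At the TGI there is no net growth.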
Experiments:
Experiment in all cases: growth of human tumour cells (NCI), 48 h
HCC-2998 colon = system: HCC-2998 colon
SK-MEL-5 melanoma = system: SK-MEL-5 melanoma
OVCAR-8 ovarian = system: OVCAR-8 ovarian
IGROV1 ovarian = system: IGROV1 ovarian
A549 NSCLC = system: A549 NSCLC
HOP-62 NSCLC = system: HOP-62 NSCLC
UACC-257 melanoma = system: UACC-257 melanoma
NCI-H522 lung = system: NCI-H522 lung
OVCAR-5 ovarian = system: OVCAR-5 ovarian

Row | Compound | TGI (HCC-2998 colon) | TGI (SK-MEL-5 melanoma) | TGI (OVCAR-8 ovarian) | TGI (IGROV1 ovarian) | TGI (A549 NSCLC) | TGI (HOP-62 NSCLC) | TGI (UACC-257 melanoma) | TGI (NCI-H522 lung) | TGI (OVCAR-5 ovarian)
1 | COC(=O)C12CCC(CC1=O)C2(C)C (stereo not given) | > 100 µM | > 100 µM | > 100 µM | > 100 µM | > 100 µM | > 100 µM | > 100 µM |  | 
2 | CN1C(=O)c2c(c3c4ccccc4n(C)c3c3c2c2ccccc2n3C)C1=O | > 100 µM | > 100 µM | > 100 µM | > 100 µM | > 100 µM | > 100 µM | > 100 µM | > 100 µM | > 100 µM
3 | N#Cc1ccccc1C#C/C=C\C#Cc1ccccn1 | 27.6 µM | 12.9 µM | 30.3 µM | 36.7 µM | 56.5 µM | 41.4 µM | 28.8 µM | 36.7 µM | 58.6 µM
4 | CCc1c[n+]2c(cc1C1=CN3c4ccccc4[C@]45CCN6C/C(=C/CO)[C@H](C[C@H]64)[C@@H]([C@@H]1O)[C@H]35)-c1[nH]c3ccccc3c1CC2 | > 50 µM | > 50 µM | > 50 µM | > 50 µM | > 50 µM | > 50 µM | > 50 µM | > 50 µM | > 50 µM
5 | O=[N+]([O-])c1cc(-c2ccc([As](=O)(O)O)cc2)ccc1[As](=O)(O)O |  | > 100 µM | > 100 µM | > 100 µM | > 100 µM | > 100 µM | > 100 µM | > 100 µM | > 100 µM
6 | CC(=O)O[C@H]1C(=O)[C@@]2(C)C(C(OC(=O)c3ccccc3)[C@]3(O)CC(OC(=O)C(O)C(NC(=O)c4cccc(Cl)c4)c4ccccc4)C(C)=C1C3(C)C)[C@]1(OC(C)=O)CO[C@@H]1C[C@@H]2O (stereo not given in full) | 4.1 µM | 6.22 µM | > 10 µM | > 10 µM | > 10 µM | > 10 µM | > 10 µM | 3.83 µM | > 10 µM
7 | CCOP(=O)(OCC)C(Cc1cn(S(=O)(=O)c2ccc(C)cc2)cn1)C(=O)O (stereo not given) | > 100 µM | > 100 µM | > 100 µM | > 100 µM | > 100 µM | > 100 µM |  | > 100 µM | > 100 µM
8 | COC(=O)c1cc(NC(=O)Cn2c3ccccc3c3ccccc32)cn1C | > 100 µM | > 100 µM | > 100 µM | > 100 µM | > 100 µM | 50.6 µM | > 100 µM | > 100 µM | > 100 µM
9 | CN(C)CCNC(=O)c1cccc2c(NC(CCCN=C(N)N)C(=O)O)c3ccccc3nc12 (stereo not given) |  | > 100 µM | 30.5 µM | 64.7 µM | > 100 µM | 90.8 µM |  | 29.5 µM | > 100 µM
10 | COc1cc(/C=[N+](\[O-])c2ccccc2Cl)ccc1OC(=S)S | > 100 µM | 38.2 µM | > 100 µM | > 100 µM | > 100 µM | > 100 µM | > 100 µM | > 100 µM | > 100 µM
11 | O=C1/C(=C/Cc2ccco2)N=C(c2ccccc2)N1c1nc2ccc(Sc3ccccc3)cc2[nH]1 | 40.6 µM | 31.8 µM | 62.6 µM | > 100 µM | > 100 µM | > 100 µM | 57.5 µM |  | 96.9 µM
12 | OC[C@@H](O)[C@H](O)[C@H](O)[C@@H](O)C1SCCCS1 | > 100 µM | > 100 µM | > 100 µM | > 100 µM | > 100 µM | > 100 µM | > 100 µM |  | > 100 µM

From PubChem BioAssay (NCI)
